For assay [1], the system named is fast voltage-gated sodium channels in rat prefrontal cortex pyramidal neurons. Nature of the assay: Patch-clamp recording of fast sodium currents. The class given is cell-based. The settings on record: control = 1.0. The procedure:
Due to the relatively high concentration of compounds used in the in vitro assays, as well as brain concentration of 28 (>10 μM after 25 mg/kg dose administration) determined in the pharmacokinetic studies (see Section 2.10), it seems unlikely that compounds described herein act by any of mechanisms tested in the aforementioned binding and functional studies. […] Thus, in further in vitro assays, 28 was also evaluated for its influence on fast voltage-gated sodium channels in rat prefrontal cortex pyramidal neurons using the patch-clamp technique (maximal currents were evoked by rectangular voltage steps to −10 mV).
The averaged, maximal normalized amplitudes of voltage-gated sodium currents were 1.0 in control, 0.72 ± 0.06 after application of 28, and 0.86 ± 0.05 after wash-out (control vs 28p < 0.05).
Patch-clamp studies in prefrontal cortex pyramidal neurons. The methodology of slice preparation, preparation of dispersed cortical neurons, and sodium current recording technique were the same as in our previous study.[75]

In the next assay the test system is mice. In words: Formalin test. The class given is in vivo. The settings on record: Mus musculus, ip, 30 min before test. The source says:
One of the most useful screening methods for testing clinically relevant molecules is the formalin model. The local injection of formalin solution induces two distinct phases of the nociceptive response, which are associated with immediate activation of nociceptors (phase I) and sensitization of spinal reflex circuits (phase II).[41] It is important to note that during the second phase, there is also an inflammatory response to tissue damage. […] Thus, this model has been successfully used to assess the analgesic efficacy of a variety of compounds, including ASMs.[42]
The experimental groups consisted of 10 adult male Albino Swiss mice (CD-1, 18–25 g). Each animal was tested only once. Immediately after the assay, the animals were sacrificed by cervical dislocation. Behavioral measurements were observed by trained observers. […] The in vivo procedure for the model of capsaicin-induced nociception was previously reported;[67] the animals were pretreated with vehicle (10 mL/kg, negative control), and the dose–response of investigated compounds was evaluated at 12.5, 25, and 50 mg/kg.
Data are presented as means ± standard error of the mean (SEM). […] Statistically significant differences between groups were calculated using one-way analysis of variance (ANOVA) and the post hoc Dunnett’s multiple comparison test or two-way analysis of variance (ANOVA). […]

Another assay addresses T1, GABA transaminase (Rattus norvegicus, UniProt P50554).
T1 construct: Eurofins (contract assay)
In words: GABA transaminase assay. The class given is biochemical. The conditions noted are these: rat brain, read-out: % inhibition of control specific binding. The protocol:
Binding/functional studies were carried out commercially in Eurofins Laboratories (Poitiers, France) and Eurofins Panlabs Discovery Services Taiwan, Ltd. (New Taipei City, Taiwan) using testing procedures that were reported previously (for details, see Table S2).
Table S2. Radioligand binding and functional assays. […]
Potassium channel (hERG) […]
Assays were performed commercially in Eurofins Laboratories ( Poitiers, France) or Eurofins Panlabs Discovery Services
Taiwan, Ltd. (New Taipei City, Taiwan).

The source of these data is article PMC11157491, “Novel Alaninamide Derivatives with Drug-like Potential for Development as Antiseizure and Antinociceptive Therapies—In Vitro and In Vivo Characterization” (ACS Chemical Neuroscience, 2024).

Read-outs that look alike come from different tables or passages of the source.

T1 sequence (P50554 28-500): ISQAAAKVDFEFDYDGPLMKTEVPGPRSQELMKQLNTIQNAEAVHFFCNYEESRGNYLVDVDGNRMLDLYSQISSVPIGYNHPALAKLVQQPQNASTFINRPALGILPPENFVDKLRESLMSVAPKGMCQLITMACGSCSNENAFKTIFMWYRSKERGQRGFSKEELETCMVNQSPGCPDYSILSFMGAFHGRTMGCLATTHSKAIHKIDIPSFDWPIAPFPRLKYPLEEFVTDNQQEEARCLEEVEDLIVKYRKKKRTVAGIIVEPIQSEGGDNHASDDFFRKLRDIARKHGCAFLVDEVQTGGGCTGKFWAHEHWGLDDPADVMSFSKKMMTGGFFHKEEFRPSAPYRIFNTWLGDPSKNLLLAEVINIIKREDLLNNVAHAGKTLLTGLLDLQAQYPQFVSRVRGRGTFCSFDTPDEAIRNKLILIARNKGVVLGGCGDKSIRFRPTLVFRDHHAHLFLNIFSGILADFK

As to `CC(=O)NC(C)C(=O)N1CCN(c2cccc(OC(F)(F)F)c2)CC1` (centres unmarked) [Compound 28, N-(1-oxo-1-(4-(3-(Trifluoromethoxy)phenyl)piperazin-1-yl)propan-2-yl)acetamide], the “averaged maximal normalized amplitude of voltage-gated sodium currents” value worked out at 0.72 ± 0.06 in assay [1] (10 μM, after application) and 0.86 ± 0.05 in assay [1] (after wash-out). For the same compound, the ED50 in the assay on mice (read-out: ED50 formalin test phase I (acute phase)) is 34.3 mg/kg; in the assay on mice (read-out: ED50 formalin test phase II (late phase)), 22 mg/kg. For the same compound, the inhibition at 100 µM at GABA transaminase was -1.9%.
